# Assay: Pharmacokinetic studies of the prodrugs of probucol in rats (oral gavage, plasma LC/MS/MS)
# Assay type: in vivo
# Conditions: male, Sprague Dawley, rat, 20 mg/kg prodrug by oral gavage, overnight fasting, analyte: prodrug; for AUC(0-t): read-out: AUC0-t of the prodrug in blood; for Cmax: read-out: Cmax of the prodrug in blood; for Tmax: read-out: tmax of the prodrug in blood
# Protocol: Four different kinds of probucol's prodrugs were prepared based on the example 1, 2, 3 and 4 to evaluate their pharmacodynamic and pharmacokinetic characteristics in rats.
# Three Sprague Dawley Male Rats were used in each experiment for each prodrug. The laboratory animal models are provided by Shanghai Super-B&K laboratory animal Corp. Ltd. (No. Of animal license SYXK(HU)2008-0016).
# Weighed 20 mg sample and dissolved it with 1 ml ethanol. Then, in turn, added 1 ml Solutol HS15 and 8 ml pH4.63 acetate buffer to make the final solution with the concentration of 2 mg/ml. The left soup were saved to run quantitative analysis.
# Three Sprague Dawley male rats were given the dose of […] (volume: 10 ml/kg) drugs by oral gavage under the condition of overnight fasting.
# Blood (volume: 0.1 ml) was drawn at 0.5, 1.0, 2.0, 4.0, 6.0, 8.0, 24.0 hours pre-dose and post-dose respectively to all animal subjects. Saved the blood samples in heparinized tubes and then centrifuged them for 10 minutes at […] at 4° C. The separated plasma was stored at −20° C. All the process including blood collection and blood analysis should be conducted in low temperatures. Standard meals were provided after 2 hours of dosing.
# API 4000 QTRAP LC/MS/MS (Applied Biosystems Corporation, US)
# LC-20AD HPLC system (Shimadzu Corporation, Japan)
# The prodrug and metabolite probucol were measured at the same time. Took 25 ul rat plasma that drawn at different time points after dosing, and then added 50 ul internal standard YX1162 (200 ng/ml, prepared by acetonitrile) and 175 ul acetonitrile, vortex mixed for 3 minutes, and then centrifuged at 13500 rpm for 10 minutes. Took 10 ul supernatant to run LC/MS/MS analysis.
# The prodrug and metabolite probucol were measured at the same time. Took 25 ul rat blank plasma, then added 25 ul solution of standard series to make the drug concentration 1.00, 2.00, 5.00, 25.0, 100, 500, 2000, 20000 and 40000 ng/ml. Next, added 50 ul internal standard YX1162 (200 ng/ml, prepared by acetonitrile) and 150 ul acetonitrile, then followed the same protocol shown in 3.4.
# Set plasma concentration as X-axis and the ratio of chromatographic peak areas for sample and internal standard as Y-axis, then used weighted least square method (w=1/x^2) to conduct linear regression analysis.
Compound,AUC(0-t) [µg·h/mL],Cmax [µg/mL],Tmax [h]
CCOC(=O)OCOc1c(C(C)(C)C)cc(SC(C)(C)Sc2cc(C(C)(C)C)c(O)c(C(C)(C)C)c2)cc1C(C)(C)C [Example 1],0.758 ± 0.204,0.218 ± 0.026,2.17 ± 1.31
CCOC(=O)OC(C)Oc1c(C(C)(C)C)cc(SC(C)(C)Sc2cc(C(C)(C)C)c(O)c(C(C)(C)C)c2)cc1C(C)(C)C (stereo not drawn) [Example 2],1.07 ± 0.404,0.268 ± 0.056,2.37 ± 1.41

# Source: patent publication US9650332B1, “Prodrug of probucol and method for preparing the same” (priority 2016, dated 2017)
